Laboratory results: US20130150327A1, “COMPOSITION FOR PREVENTING HAIR LOSS OR STIMULATING HAIR GROWTH” (Biopid Corporation, priority 2010, published 2013)

Legend:
[1] = system: mice with DNFB-induced allergic dermatitis; test: Animal Test 1: hair follicle growth in back skin tissue of mice with DNFB-induced allergic dermatitis; type: in vivo, mouse; conditions: comparators: Tacrolimus ointment (FIG. 5), 0.1% dexamethasone in ethanol (FIG. 6), twice a day, 10 days
From the text: In order to prepare animal models with an atopic dermatitis, or a contact dermatitis and allergic dermatitis, After 1 week of sensitizing with DNFB, DNFB was applied to the backs of mice total 10 times per 2 weeks to induce an artificial allergic dermatitis. […] Since applying DNFB five times, the composition of the present invention, Tacrolimus ointment (trade name, Protopic, Astella Pharma Korea, Inc.), and dexamethasone (Sigma Chem. Co. USA, 0.1% solution dissolved in ethanol) were applied to the backs of mice occurred with inflammation twice a day in the amount of 60 ml, respectively. At 10 days after applying, the mice tissues were collected to test experiments.

C3H/HeNCrljBgi mice = test: Animal Test 3: organic acid effect and soy extracted phospholipid effect, hair growth area; type: in vivo, mouse; conditions: 2.5 weeks, twice a day, phospholipids 20 mg/ml, minoxidil 5% applied to all groups except Group 1 30 minutes before the composition
Method: In addition, the composition was prepared by using soy lecithin (phospholipid extracted from soy, #86015-1201, Junsei Chemical, Japan), and then effect of the composition on hair growth was compared. C3H/HeNCrljBgi species of 7 ages of weeks (Orient Bio, Sungnam, Korea) were purchased as the experimental mice, and then used for the test. […] The composition of the present invention was applied for 2.5 weeks, and 60 ml of the composition was applied on the backs of the hairs-removed mice twice a day. The concentration of the applied phospholipids was 20 mg/ml. As a measurement of hair growth in the mice, the pictures of the mice of each experimental group were taken, respectively, and then the ratio of the hair growth area in the hairs-removed area was calculated.

Structure (SMILES)	hair follicle growth in mice tissues [1]	Hair growth area (ratio of the hair growth area in the hairs-removed area) (C3H/HeNCrljBgi mice)
C=CC[C@@H]1/C=C(\C)C[C@H](C)C[C@H](OC)[C@H]2O[C@@](O)(C(=O)C(=O)N3CCCC[C@H]3C(=O)O[C@H](/C(C)=C/[C@@H]3CC[C@@H](O)[C@H](OC)C3)[C@H](C)[C@@H](O)CC1=O)[C@H](C)C[C@@H]2OC [Tacrolimus, tacrolimus]	new hair follicles were formed	
Nc1cc(N2CCCCC2)nc(N)[n+]1[O-] [Minoxidil, minoxidil]		10.2
